Reference: patent US20230027066A1 (Urovant Sciences GmbH, priority 2019, published 2023)

System: men and women with overactive bladder
Test: Phase 3 study of vibegron 75 mg vs placebo and tolterodine ER 4 mg, 12 weeks, efficacy (voiding and urine volume diary)
Assay type: in vivo, human
Experimental: Enrollment of patients included individuals with OAB Wet (those with UUI, the involuntary loss of urine accompanied by urgency) and OAB Dry (those without UUI). A total of 1,518 patients were randomized across 215 study sites into one of three groups for a 12-week treatment period.
The study consisted of a Screening Period (1 to 5 weeks), a single-blind Run-in Period (2 weeks), a randomized double-blind Treatment Period (12 weeks), and a Follow-up Period (4 weeks).
Tolterodine ER 4 mg was the active control. […] Between the Baseline and Week 12 Visits, patients had study assessments at Week 4 and Week 8.
The Patient Voiding Diary was used by participants (via the eDiary or paper Diary) to record the frequency of daily OAB symptoms including all micturitions, urgency, incontinence, and main reason for incontinence by selecting the respective box for each symptom occurring during the course of a given day and night.
Urine volume data were collected separately by patients using the Urine Volume component of the eDiary, or the paper Urine Volume Chart. The Urine Volume Chart is a tool used in clinical practice and clinical investigation to assess voiding functions over a 24-hour period and is regarded as a useful instrument in the investigation of patients with voiding symptoms. Urine volume may be collected during any one (1) of the 7 Diary Days prior to the visit, and it should be recorded for ˜24 hours starting from the time the patient gets up for the day and continues until the time the patient gets up for the day on the next day.
For the purpose of this study, the number of micturitions was defined as the number of times a patient has voided in the toilet as indicated on the Patient Voiding Diary. Average daily micturitions were calculated using the daily entries in the Patient Voiding Diary, which was completed over the 7 days prior to each study visit. Average daily number of micturitions were calculated as the total number of micturitions that occurred on a Complete Diary Day divided by the number of Complete Diary Days in the Patient Voiding Diary. A complete diary day required confirmation by the patient in the Patient Voiding Diary that all voids and leakages had been recorded for the diary day. Baseline was defined as the average number of micturitions occurring during the last evaluable diary prior to the Baseline Visit.
The number of UUI episodes was defined as the number of times a patient had checked “urge” as the reason for accidental urine leakage. Average daily UUI episodes at each study visit were calculated in the same manner as described above for the micturition endpoint. The UUI endpoint were analyzed using only OAB Wet patients.
For the analysis of the co-primary endpoints (change from baseline in average number of daily micturitions at Week 12 and change from baseline in average number of daily urge urinary incontinence episodes at Week 12, and placebo adjustment of each), a mixed model for repeated measure (MMRM) with restricted maximum likelihood estimation was used. This model corrects for dropout and accounts for the fact that measurements taken on the same patient over time tend to be correlated by using all available information on patients within the same covariate set to derive an estimate of the treatment effect for a dropout-free population. The analysis model for each efficacy endpoint includes terms for treatment, visit, OAB Type (Wet vs Dry), Sex (Female vs Male), Region (US vs Rest of World), baseline score, and interaction of visit by treatment.
Primary inferences were drawn from treatment differences for the changes from baseline derived from the MMRM models at Week 12. As part of secondary objectives, the treatment differences for each post baseline visit were also derived using the same MMRM model. […]

[1] = Week 8, events of Events/Censored
[2] = Week 12, Age ≥ 75 years (posthoc analysis)
[3] = Week 12, No Prior ACH Use in last 12 Mo.
[4] = Week 12, No Prior B3 Agonist Use in last 12 Mo.
[5] = Week 12, Prior ACH Use in last 12 Mo.
[6] = Week 12, Prior B3 Agonist Use in last 12 Mo.

Cc1ccc(O)c([C@H](CCN(C(C)C)C(C)C)c2ccccc2)c1 [Tolterodine ER, tolterodine, reference compound]
Average daily number of urgency episodes, Mean (SD) (Week 8): 5.60 (4.266) | Average volume voided per micturition, Active - Placebo LS Mean Difference (Week 8): 14.4 mL | Average volume voided per micturition, Week 8 Mean (SD) (Week 8): 162.9 (74.46) mL | Change from Baseline in Average Daily Number of Total Incontinence, LS Mean (SE) (Week 8): −1.8 (0.16) | Change from baseline in average daily number of urgency episodes, LS Mean (Week 8): −2.2 | Change from baseline in average volume voided per micturition, LS Mean (SE) (Week 8): 17.5 (3.44) mL | Estimated Incidence of Subjects with 50% Decrease from Baseline (urgency episodes) (Week 8): 30.9 | Estimated Incidence of Subjects with 100% Decrease from Baseline (UUI episodes) (Week 8): 15.8 | Total Incontinence, Active - Placebo LS Mean Difference (SE) (Week 8): −0.5 (0.17) | Urgency episodes, Active - Placebo LS Mean Difference (Week 8): −0.6 | First 50% Reduction in Urgency Episodes, Events [1]: 127/290 | First 100% Reduction in UUI Episodes, Events [1]: 49/270 | Average Daily Number of Total Incontinence, Mean (SD) (Week 12): 1.89 (2.353) | Average daily number of urgency episodes, Mean (SD) (Week 12): 5.36 (4.425) | Average volume voided per micturition, Active - Placebo LS Mean Difference (Week 12): 13.3 mL | Average volume voided per micturition, Week 12 Mean (SD) (Week 12): 162.1 (72.96) mL | Change from Baseline in Average Daily Number of Total Incontinence, LS Mean (SE) (Week 12): −2.0 (0.16) | Change from baseline in average daily number of urgency episodes, LS Mean (Week 12): −2.5 | Change from baseline in average volume voided per micturition, LS Mean (SE) (Week 12): 15.5 (3.52) mL | Estimated Incidence of Subjects with 50% Decrease from Baseline (urgency episodes) (Week 12): 40.5 | Estimated Incidence of Subjects with 100% Decrease from Baseline (UUI episodes) (Week 12): 24.4 | Total Incontinence, Active - Placebo LS Mean Difference (SE) (Week 12): −0.5 (0.17) | Urgency episodes, Active - Placebo LS Mean Difference (Week 12): −0.4 | Micturitions: Week 12 CFB Mean (descriptive statistics) (Week 12, <65 yrs): −1.99 | UUI: Week 12 CFB Mean (descriptive statistics) (Week 12, African American): −1.42 | UUI: Week 12 CFB Median (Week 12, African American): −1.43 | Micturitions: Week 12 CFB LS Mean (95% CI) (Week 12, Age < 65 years): −1.8 | UUI: Week 12 CFB LS Mean (95% CI) (Week 12, Age < 65 years): −1.8 | UUI: Week 12 CFB Mean (descriptive statistics) (Week 12, Age < 65 years): −1.72 | Micturitions: Week 12 CFB LS Mean (95% CI) (Week 12, Age ≥ 65 years): −1.3 | UUI: Week 12 CFB LS Mean (95% CI) (Week 12, Age ≥ 65 years): −1.8 | UUI: Week 12 CFB Mean (descriptive statistics) (Week 12, Age ≥ 65 years): −1.80 | Micturitions: Week 12 CFB LS Mean (95% CI) [2]: −1.5 | UUI: Week 12 CFB LS Mean (95% CI) [2]: −2.0 | UUI: Week 12 CFB Mean (descriptive statistics) (Week 12, Asian): −0.21 | UUI: Week 12 CFB Median (Week 12, Asian): −0.14 | Micturitions: Week 12 CFB LS Mean (95% CI) (Week 12, Females): −1.7 | Micturitions: Week 12 CFB Mean (descriptive statistics) (Week 12, Females): −1.88 | UUI: Week 12 CFB LS Mean (95% CI) (Week 12, Females): −1.8 | UUI: Week 12 CFB Mean (descriptive statistics) (Week 12, Females): −1.71 | Micturitions: Week 12 CFB LS Mean (95% CI) (Week 12, Males): −1.0 | Micturitions: Week 12 CFB Mean (descriptive statistics) (Week 12, Males): −1.28 | UUI: Week 12 CFB LS Mean (95% CI) (Week 12, Males): −2.0 | UUI: Week 12 CFB Mean (descriptive statistics) (Week 12, Males): −2.08 | Micturitions: Week 12 CFB Mean (descriptive statistics) (Week 12, Males with BPH): −1.25 | UUI: Week 12 CFB Mean (descriptive statistics) (Week 12, Males with BPH): −2.15 | Micturitions: Week 12 CFB Mean (descriptive statistics) (Week 12, Males without BPH): −1.29 | UUI: Week 12 CFB Mean (descriptive statistics) (Week 12, Males without BPH): −2.05 | Micturitions: Week 12 CFB Mean (descriptive statistics) [3]: −1.82 | UUI: Week 12 CFB Mean (descriptive statistics) [3]: −1.88 | Micturitions: Week 12 CFB Mean (descriptive statistics) [4]: −1.83 | UUI: Week 12 CFB Mean (descriptive statistics) [4]: −1.83 | Micturitions: Week 12 CFB LS Mean (95% CI) (Week 12, Non-White): −1.3 | Micturitions: Week 12 CFB Mean (descriptive statistics) (Week 12, Non-White): −1.42 | UUI: Week 12 CFB LS Mean (95% CI) (Week 12, Non-White): −1.3 | UUI: Week 12 CFB Mean (descriptive statistics) (Week 12, Non-White): −1.11 | UUI: Week 12 CFB Median (Week 12, Non-White): −1.00 | Micturitions: Week 12 CFB LS Mean (95% CI) (Week 12, Overall): −1.6 | Micturitions: Week 12 CFB Mean (descriptive statistics) (Week 12, Overall): −1.78 | UUI: Week 12 CFB LS Mean (95% CI) (Week 12, Overall): −1.8 | UUI: Week 12 CFB Mean (descriptive statistics) (Week 12, Overall): −1.75 | Micturitions: Week 12 CFB Mean (descriptive statistics) [5]: −1.52 | UUI: Week 12 CFB Mean (descriptive statistics) [5]: −0.98 | Micturitions: Week 12 CFB Mean (descriptive statistics) [6]: −1.30 | UUI: Week 12 CFB Mean (descriptive statistics) [6]: −0.65 | Micturitions: Week 12 CFB LS Mean (95% CI) (Week 12, Region: Non-US): −1.0 | Micturitions: Week 12 CFB Mean (descriptive statistics) (Week 12, Region: Non-US): −1.38 | UUI: Week 12 CFB LS Mean (95% CI) (Week 12, Region: Non-US): −2.0 | UUI: Week 12 CFB Mean (descriptive statistics) (Week 12, Region: Non-US): −2.26 | Micturitions: Week 12 CFB LS Mean (95% CI) (Week 12, Region: US): −1.7 | Micturitions: Week 12 CFB Mean (descriptive statistics) (Week 12, Region: US): −1.83 | UUI: Week 12 CFB LS Mean (95% CI) (Week 12, Region: US): −1.7 | UUI: Week 12 CFB Mean (descriptive statistics) (Week 12, Region: US): −1.69 | Micturitions: Week 12 CFB LS Mean (95% CI) (Week 12, White): −1.6 | Micturitions: Week 12 CFB Mean (descriptive statistics) (Week 12, White): −1.90 | UUI: Week 12 CFB LS Mean (95% CI) (Week 12, White): −1.9 | UUI: Week 12 CFB Mean (descriptive statistics) (Week 12, White): −1.92 | UUI: Week 12 CFB Median (Week 12, White): −1.57
